One experiment relates to MCF-7 cells. As to the kind of experiment: Cell cycle analysis (PI, flow cytometry). To be noted: 1 μM. It counts as cell-based, human. As to the method: Figure 10 Compound (A) 22b, (B) phenstatin 19c induced apoptosis in a time-dependent manner in MCF-7 cells. Cells were treated with either vehicle control [0.1% ethanol (v/v)] or compound 22b or phenstatin 19c (1 μM) for 24, 48, and 72 h). The data shown for the control vehicle and phenstatin are as we previously reported. Cells were fixed and stained with PI, followed by analysis using flow cytometry. Cell cycle analysis was performed on histograms of gated counts per DNA area (FL2-A). The number of cells with <2 N (sub-G1), 2 N (G0G1), and 4 N (G2/M) DNA content was determined with CellQuest software, BD CellQuest Pro. Values are represented as the mean ± SEM for three separate experiments. Two-way ANOVA (Bonferroni post-test) was used to test for statistical significance (*, p < 0.05; **, p < 0.01; ***, p < 0.001).
Cells (MCF-7 and MDA-MD 231) were seeded at a density of 1 × 10^5 cells/well in 6-well plates (volume of 3 mL per well) and treated with selected compound 22b and phenstatin (19c) (1 μM), as previously reported. The time points used were 24, 48, or 72 h. Ethanol was used as the vehicle. At each time point, the media was removed and then the well was carefully rinsed with PBS and TrypLE™ Express enzyme (200 µL) was added to detach the adherent cells. The cells were collected by trypsinization and were then centrifuged at 800× g for 15 min. Cells were washed with ice-cold phosphate-buffered saline (PBS) ×2 and fixed in ice-cold 70% ethanol for 14 h at −20 °C. Fixed cells were centrifuged at 800× g for 15 min. The samples were then treated with 12.5 µL of DNase-free RNAse A (10 mg/mL) together with […] of PI (1 mg/mL) at 37 °C for 30 min, vortexed, and wrapped in tin foil. The DNA content of cells (10,000 cells/selected experimental group) was determined by flow cytometry at 488 nm with a FACSCalibur flow cytometer (BD Biosciences, San Jose, CA, USA) using the CellQuest Software (Becton-Dickinson, East Rutherford, NJ, USA). Each experiment was performed on three separate occasions.

Experiment [1] has as its system MDA-MB-231 breast cancer cells. As to the kind of experiment: alamarBlue cell viability assay. The class given is cell-based. To be noted: Homo sapiens. The protocol: HL-60 cells were suspension cells and the seeding density for the viability assay was 25,000 cells/mL. MCF-7 cells (adherent) were cultured in Minimum Essential Media (MEM) with GlutaMAX™-I, supplemented with 1% (v/v) non-essential amino acids, 10% (v/v) fetal bovine serum (FBS), purchased from BD Biosciences (Edmund Halley Road, Oxford, UK), and 1% (v/v) penicillin/streptomycin 5000 U/mL. The MCF-7 cells used in the screening of the compounds during these experiments were mycoplasma-free. The seeding density of MCF-7 in the viability assay was 25,000 cells/mL and 50,000 cells/mL in the FACS assay. […]
The biochemical assays were performed in triplicate and on at least three independent occasions to facilitate the determination of mean values. […] Adherent cells such as MCF-7, MDA-MB-231, and MCF-10A were trypsinized to detach them from the flask, counted as previously described, and seeded in 96 well plates with a seeding density of 25,000 cells /mL (200 µL of suspension in each well so that the final number of cells per well was 5000) and 1 × 10^4 cells/well seeding density for suspension HL-60 cells. […] After 72 h, the change in color was measured by spectrofluorimetry at an excitation wavelength of 544 nm and emission wavelength of 590 nm. […]
On the technique in general: Alamar Blue is a resazurin reagent that responds to reducing activity.

Take `COc1ccc(/C=C/C(c2cc(OC)c(OC)c(OC)c2)n2cncn2)cc1O` (centres unmarked) [Compound 22b, (E)-5-(3-(1H-1,2,4-Triazol-1-yl)-3-(3,4,5-trimethoxyphenyl)prop-1-en-1-yl)-2-methoxyphenol]: the “cells in G2/M phase” value in the experiment on MCF-7 cells (24 h) is on record as 35%; in the experiment with MCF-7 cells (48 h) it was 26%; in the experiment on MCF-7 cells (72 h) it was 23%. For the same compound, the “cells in apoptosis (sub-G1)” value is on record as 14% with MCF-7 cells (24 h), 23% with MCF-7 cells (48 h) and 31% with MCF-7 cells (72 h). Besides, the half-maximal inhibitory concentration (IC50) (in general, the concentration that gives 50% inhibition) was determined as 770 nM in experiment [1] and 765 ± 30 nM in experiment [1] (72 h).
